Structures are written as SMILES. Records with an inconclusive call do not appear. The source made the active and inactive calls. How the calls were made is not given here. *1 amine or outer side, *2 acyl side, *3 side chain or, on linkers, in order; H or OH if unused. Where a SMILES comes first, the peptide text is derived from it. Bridges are numbered along the chain shown (N, C = ends). Roman numbers before positions name the chains, in order. [ ]: non-standard residue; d: D form. Actinocin(9to1) = Cc1c2oc3c(C)ccc(C(=O)[*:1])c3nc-2c(C(=O)[*:2])c(N)c1=O; NMeV = CN[C@H](C(=O)O)C(C)C; Sar = CNCC(=O)O

This data set deals with mouse/rat in vivo micronucleus assay, summary call. The data set is described as follows: In vivo micronucleus assay summary data. The text has this:
The erythrocyte micronucleus test examines the ability of substances to cause chromosome damage in developing red blood cells inside bone marrow. A micronucleus (literally, "little nucleus") is a biomarker of structural chromosome damage (e.g., breaks) and changes in chromosome number (e.g., chromosome loss). If a chromosome is broken or fails to migrate properly with other chromosomes during cell division, the broken piece or lost chromosome will form a small (micro) nucleus of its own in one of the two daughter cells produced. Detection of chromosomal damage is important because it has been linked to birth defects, infertility, and certain diseases, including cancer.
The micronucleus test is performed in rapidly dividing cell populations, and bone marrow is a site of rapid blood cell division. Both bone marrow and peripheral blood samples can be examined for the presence of micronuclei in red blood cells.
Animals are treated with a test substance once or daily over a period of time, and the frequency of micronucleated cells is determined 24-48 hours after the final treatment, depending on the source of the cells (bone marrow or blood) that are examined and the treatment regimen.
The test subjects are rodents (rats or mice) that are exposed to the test substance, usually by oral gavage or injection. Typically, one to three daily treatments of the test substance are administered over a range of doses; the highest dose tested is near the maximum tolerated dose. Groups of negative and positive control animals are included for each test. Bone marrow samples are obtained from all animals 24 hours after the last treatment, and red blood cells are examined for the presence of micronuclei.
B. Peripheral Blood Tests
Micronucleus tests are performed on male and female rodents that are exposed to the test substance orally, dermally, or by inhalation in subchronic (e.g., 28 or 90 days) or short term (e.g., 48-72 hours) toxicity studies. 24 to 48 hours after the final exposure, peripheral blood samples are obtained and red blood cells are examined for the presence of micronuclei. Samples may be examined using standard slide scoring procedures or automated flow cytometric approaches. Since 2007, NTP has routinely relied on flow cytometry to evaluate the frequency of micronucleated cells in peripheral blood.
Peripheral blood micronucleus assays are typically integrated into all NTP toxicity studies, and they also lend themselves to serial monitoring of micronucleus frequencies over time, since blood samples can be obtained without the need to sacrifice the animals.
Blood or bone marrow samples from treated animals are compared to samples from untreated animals. With the slide-based approach for data acquisition, 1000-2000 cells were scored per animal. Using flow cytometric procedures to evaluate blood samples, 20,000 immature red blood cells and around one million mature red blood cells are examined per animal, resulting in a marked increase in the ability to detect small changes in the frequency of micronucleated red blood cells. The data is analyzed using statistical methods to determine if there is a significant increase in the frequency of cells containing micronuclei. Both dose-related responses and the magnitude of response for each independent dose group are considered during the evaluation of the data. For a positive test, both a significant dose response (trend) and at least one significant dose group are required. If only one of these measures is present, the test is determined to be questionable. The absence of either condition results in a negative test. The final conclusions for micronucleus tests are determined by considering the results of statistical analyses, reproducibility of any observed effects, and the magnitude of the effects. Ultimately, both the biological significance as well as statistical significance is considered when reaching a final conclusion.
[…]

As to `NC(=O)NO`, the outcome was “active; positive”. The same measure for `CC(=O)CC(C)=O`: “active; positive”; for `Cc1c2oc3c(C)ccc(C(=O)N[C@@H]4C(=O)N[C@H](C(C)C)C(=O)N5CCC[C@H]5C(=O)N(C)CC(=O)N(C)[C@@H](C(C)C)C(=O)O[C@@H]4C)c3nc-2c(C(=O)N[C@@H]2C(=O)N[C@H](C(C)C)C(=O)N3CCC[C@H]3C(=O)N(C)CC(=O)N(C)[C@@H](C(C)C)C(=O)O[C@@H]2C)c(N)c1=O` (I: T[dV]P[Sar][NMeV] / II: T[dV]P[Sar][NMeV]; ester I:1-I:C, II:1-II:C; linker I:N-II:N via Actinocin(9to1)): “active; positive”; for `CC(=O)C1(C)CC2=C(CCCC2(C)C)CC1C` (stereo unspecified): “active; positive”. The same measure for `COC(=O)[C@H](Cc1ccccc1)NC(=O)[C@@H](N)CC(=O)O` (H-Asp-Phe-OMe): “active; positive”. In the case of `OCC1CO1` (stereo unspecified) it was “active; positive”. As for `Cc1cnc[nH]1`, the outcome is “inactive; negative”. The same measure for `Nc1cccc(Cl)c1`: “inactive; negative”; for `ClCC(Cl)(Cl)Cl`: “active; positive”; for `ClCCOCOCCCl`: “inactive; negative”. In the case of `C[C@]12CC[C@@H]3c4ccc(O)cc4CC[C@H]3[C@@H]1CC[C@@H]2O` it was “inactive; negative”. On to `O=NO`, for which the outcome was “inactive; negative”.

As for `Nc1ccc(Oc2ccc(N)cc2)cc1`, the outcome is “active; positive”.

For `CCCOC(=O)c1cc(O)c(O)c(O)c1`, the outcome was “active; positive”. In the case of `Nc1ccn([C@H]2CC[C@@H](CO)O2)c(=O)n1` it was “active; positive”; in that of `Cc1cn([C@H]2C=C[C@@H](CO)O2)c(=O)[nH]c1=O`, “active; positive”.
